Data published in PubChem BioAssay (NCI).
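Method: 48-hour compound exposure of cells in 96-well plates, five concentrations, linear interpolation of endpoints. TGI: total growth inhibition.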

Legend:
Assay in all cases: DTP human tumour cell line panel, 48 h
[1] = system: OVCAR-3 ovarian
[2] = system: HOP-62 NSCLC
[3] = system: MDA-MB-231 breast
[4] = system: SK-MEL-2 melanoma
[5] = system: CAKI-1 renal
[6] = system: MOLT-4 leukemia
[7] = system: CCRF-CEM leukemia
[8] = system: SF-539 CNS
[9] = system: UACC-62 melanoma
[10] = system: BT-549 breast
[11] = system: OVCAR-4 ovarian
[12] = system: MDA-MB-435
[13] = system: NCI-H23 lung
[14] = system: DU-145 prostate
[15] = system: A498 renal
[16] = system: SR leukemia
[17] = system: SNB-75 CNS
[18] = system: OVCAR-5 ovarian
[19] = system: COLO 205 colon
[20] = system: RPMI-8226 leukemia
[21] = system: ACHN renal
[22] = system: IGROV1 ovarian
[23] = system: HS 578T breast
[24] = system: OVCAR-8 ovarian
[25] = system: UO-31 renal
[26] = system: MCF7 breast
[27] = system: HL-60(TB) leukemia
[28] = system: K-562 leukemia
[29] = system: 786-0 renal
[30] = system: HCT-116 colon
[31] = system: HCT-15 colon
[32] = system: SW-620 colon
[33] = system: U251 CNS
[34] = system: SF-268 CNS
[35] = system: KM12 colon
[36] = system: SN12C renal
[37] = system: TK-10 renal
[38] = system: HT29 colon
[39] = system: EKVX NSCLC
[40] = system: LOX IMVI melanoma
[41] = system: RXF 393 renal
[42] = system: T-47D breast
[43] = system: A549 NSCLC
[44] = system: SF-295 CNS
[45] = system: HCC-2998 colon
[46] = system: SK-MEL-5 melanoma
[47] = system: NCI/ADR-RES ovarian
[48] = system: NCI-H522 lung
[49] = system: HOP-92 NSCLC
[50] = system: NCI-H460 lung
[51] = system: M14 melanoma
[52] = system: SK-MEL-28 melanoma
[53] = system: UACC-257 melanoma
[54] = system: SNB-19 CNS
[55] = system: SK-OV-3 ovarian
[56] = system: NCI-H226 lung
[57] = system: PC-3 prostate
[58] = system: MDA-N

What does the source list for `CCCCCCCCCCCCCCCC(=O)Nc1ccn(C2CC(OP(=O)(O)OCC3OC(n4cc(F)c(=O)[nH]c4=O)CC3OC(C)=O)C(CO)O2)c(=O)n1` (stereo not drawn)?
TGI [1]: > 100 µM; TGI [2]: 13.3 µM; TGI [3]: > 61.5 µM; TGI [4]: > 63.4 µM; TGI [5]: > 35.7 µM; TGI [6]: 34.4 µM; TGI [7]: > 100 µM; TGI [8]: > 39.5 µM; TGI [9]: > 47.2 µM; TGI [10]: 62.2 µM; TGI [11]: > 100 µM; TGI [12]: > 94.8 µM; TGI [13]: > 63.9 µM; TGI [14]: > 100 µM; TGI [15]: > 100 µM; TGI [16]: 22.7 µM; TGI [17]: > 51.6 µM; TGI [18]: > 64.5 µM; TGI [19]: > 66.3 µM; TGI [20]: 27.9 µM; TGI [21]: 3.54 µM; TGI [22]: > 100 µM; TGI [23]: 90.9 µM; TGI [24]: > 52.3 µM; TGI [25]: 2.75 µM; TGI [26]: > 100 µM; TGI [27]: > 21.9 µM; TGI [28]: > 100 µM; TGI [29]: > 100 µM; TGI [30]: > 100 µM; TGI [31]: > 65.4 µM; TGI [32]: > 100 µM; TGI [33]: 71.8 µM; TGI [34]: > 44.4 µM; TGI [35]: 48.1 µM; TGI [36]: > 49.9 µM; TGI [37]: > 100 µM; TGI [38]: 52.8 µM; TGI [39]: > 100 µM; TGI [40]: > 100 µM; TGI [41]: > 71 µM; TGI [42]: > 100 µM; TGI [43]: > 41.3 µM; TGI [44]: > 45.2 µM; TGI [45]: > 36.5 µM; TGI [46]: > 96.5 µM; TGI [47]: 46.1 µM; TGI [48]: 37.7 µM; TGI [49]: > 100 µM; TGI [50]: > 100 µM; TGI [51]: > 39.7 µM; TGI [52]: > 100 µM; TGI [53]: > 100 µM; TGI [54]: > 63.2 µM; TGI [55]: > 51.6 µM; TGI [56]: > 100 µM; TGI [57]: 25.2 µM; TGI [58]: > 100 µM
